Assay results as given in patent US8394742B2, “Methods, compounds and compositions with genotype selective anticancer activity” (The Translation Genomics Research Institute, priority 2005, dated 2013).

Key:
[1] = tested on: HPDE6-siDPC4 (HPDE6 cells with DPC4 expression stably suppressed by siRNA); assay: MTS cell proliferation assay, HPDE6-siDPC4 cells; type: cell-based; details: Homo sapiens
Method: At the initial screening, compounds are tested in the MTS assay (or other cell proliferation assays such as SRB and Alamar Blue) against the cell line in which the specific gene is either deleted or suppressed by siRNA at a single dose of 10 μM (Toxicity Screening).
Compounds that show more than 50% cell growth inhibition at this concentration are selected to test against both isogenic cell lines (loss-of-function vs. wild type) at three different concentrations (10, 2 and 0.4 μM, Synthetic lethal Screening). Compounds that show a selectivity index ≧5 are selected for next round of screening—Selectivity Screening.
In the Selectivity Screening, compounds are tested against cancer cell lines with a specific loss-of-function mutation and normal cells (HPDE6 and FORF-TERT). Depending on their approximate potency assessed in the Synthetic lethal Screening, compounds are tested in a range of concentrations (8 concentrations per agent) in Selectivity Screening. Compounds that have nM IC50 values in loss-of-function cells and selectivity index values >10 are selected for phenotypic consequence tests and in vivo evaluations in animal models.
The inhibition of cell proliferation by library compounds was evaluated using the CellTiter 96 Non-Radioactive Cell Proliferation Assay following the protocol recommended by the manufacturer (Promega, Madison Wis.). […]

[2] = tested on: pancreatic cancer cell lines; assay: MTS cell proliferation assay, panel of pancreatic cancer cell lines; type: cell-based, human
Method: The inhibition of cell proliferation by library compounds was evaluated using the CellTiter 96 Non-Radioactive Cell Proliferation Assay following the protocol recommended by the manufacturer (Promega, Madison Wis.). Briefly, 2000 cells were seeded in each well of 96-well plates in 90 μl growth medium. Cells were allowed to attach overnight followed by addition of 10 μl of serially diluted compounds into the plates. After incubation for 4 days at 37° C. in a humidified incubator, 20 μl of a 20:1 mixture of (3-(4,5-dimethylthiazol-2-yl)-5-(3-carboxymethoxyphenyl)-2-(4-sulfophenyl)-2H-tetrazolium, inner salt (MTS, 2 mg/ml) and an electron coupling reagent, phenazine methosulfate (PMS, 0.92 mg/ml), was added to each well and incubated for 3 hours at 37° C. Absorbance was then measured using the Wallace Victor microplate reader at 490 nm (PerkinElmer, Wellesley, Mass.). Data were expressed as the percentage of cell growth calculated from the absorbance corrected for background absorbance. The surviving fraction of cells was determined by dividing the mean absorbance values of the treated samples by the mean absorbance values of the DMSO control.
Applicants further examined the anti-proliferative activity of UA62001 in a panel of cell lines including normal cell lines which have wildtype DPC4 and pancreatic cancer lines with either wildtype DPC4 or inactivated DPC4 (Table 1). […]

caspase-3 = assay: Caspase-3 activation analysis by Western blot; type: cell-based, human; details: BxPC-3-vector and BxPC-3-DPC4 cells, 25 μM, 24 hours
Method: FIG. 5A provides a graphic depiction of the Annexin V staining. The percentage of cells in the indicated M1 region was 4.6% in the untreated control and 8.2%, in the UA62001-treated (25 μM, 24 hours) BxPC-3 cells. FIG. 5B provides an image of the activation of pro-caspase-3 in BxPC-3 cells after UA62001 treatment. Whole cell extracts were prepared from BxPC-3-vector and BxPC-3-DPC4 cells after UA62001 (25 μM, 24 hours) treatment. Each lane was loaded with 20 μg of total protein. Camptothecin treated Jurkat cell lysate (20 μg) was loaded as the positive control. Lane 1, BxPC-3-DPC4; lane 2, BxPC-3-DPC4-UA62001; lane 3, BxPC-3-vector; lane 4, BxPC-3-vector-UA62001; lane 5, Jurkat-camptothecin.
Whole cell extracts were prepared using Nonidet P-40 (NP-40) lysis buffer (1% IGEPAL CA-630, a substitute for NP-40, 150 mM NaCl, 50 mM Tris-HCl [pH 7.4], 2 mM EDTA). […] Protein concentrations of the lysates or fractionates were determined using the BCA reagents (PIERCE). […] DPC4 protein was detected by a monoclonal antibody (Oncogene Research Products, Boston, Mass.). p21 protein was detected by a polyclonal antibody (Cell Signaling Technology, Beverly, Mass.). Both active and proto-form of the caspas-3 were detected by a polyclonal antibody obtained from BD Pharmingen (BD Biosciences Pharmingen, San Diego, Calif.). β-Actin, which served as a loading control was detected by a monoclonal antibody (Sigma). […]

[3] = tested on: DPC4 isogenic cell lines (BxPC-3-vector and BxPC-3-DPC4); assay: Pharmacological synthetic lethal screening in DPC4 isogenic cell lines; type: cell-based, human; details: reexpression isogenic cell lines
Excerpt: To find molecules that selectively kill cells with specific deficiencies, Applicants use cell proliferation assays to screen molecules libraries in a high throughput manner. These molecule libraries can be small organic compounds, siRNA libraries, antisense libraries and antibody/protein libraries. To carry out the screening in an efficient and cost-effective way, Applicants have designed a procedure for the screening of small organic compound libraries which consists of three steps, namely Toxicity Screen, Synthetic Lethal Screen and Selectivity Screen (FIG. 12). […]
In the Selectivity Screening, compounds are tested against cancer cell lines with a specific loss-of-function mutation and normal cells (HPDE6 and FORF-TERT). Depending on their approximate potency assessed in the Synthetic lethal Screening, compounds are tested in a range of concentrations (8 concentrations per agent) in Selectivity Screening. […]
After generating the isogenic cell lines for the DPC4 gene, Applicants then carried out a screening process using the cell lines with the aim to identify compounds that selectively kill cells with deficient DPC4 function. […] In each round, the anti-proliferative activity of compounds was evaluated in different cell lines using the CellTiter 96 Non-Radioactive Cell Proliferation Assay (Promega). […]

O=C1c2ccccc2C(=O)c2c1ccc1c(=O)n(-c3ccccc3)[nH]c21 [UA62001, 2-phenyl-1H-Naphth [2,3-g]indazole-3,6,11(2H)-trione]
IC50 [1]: 6 µM | IC50 values in pancreatic cancer cell lines [2]: low μM | cleavage of proto-form of caspase-3 (caspase-3): did not induce the cleavage | selectivity against DPC4 deficiency [3]: DPC4 genotype selectivity
